Counter-ions that a name gives are not always drawn.

This test has as its target ROCK2 (Homo sapiens, UniProt O75116). Kind of test: ROCK2 kinase inhibition assay (LABCHIP 3000 Reader, FITC peptide substrate).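 Also: rho kinase reaction read by separating phosphorylated from unphosphorylated peptide on chip, with inhibition of kinase activity computed per concentration across a dose-response series.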

Sequence of ROCK2 (O75116 whole entry, species assumed): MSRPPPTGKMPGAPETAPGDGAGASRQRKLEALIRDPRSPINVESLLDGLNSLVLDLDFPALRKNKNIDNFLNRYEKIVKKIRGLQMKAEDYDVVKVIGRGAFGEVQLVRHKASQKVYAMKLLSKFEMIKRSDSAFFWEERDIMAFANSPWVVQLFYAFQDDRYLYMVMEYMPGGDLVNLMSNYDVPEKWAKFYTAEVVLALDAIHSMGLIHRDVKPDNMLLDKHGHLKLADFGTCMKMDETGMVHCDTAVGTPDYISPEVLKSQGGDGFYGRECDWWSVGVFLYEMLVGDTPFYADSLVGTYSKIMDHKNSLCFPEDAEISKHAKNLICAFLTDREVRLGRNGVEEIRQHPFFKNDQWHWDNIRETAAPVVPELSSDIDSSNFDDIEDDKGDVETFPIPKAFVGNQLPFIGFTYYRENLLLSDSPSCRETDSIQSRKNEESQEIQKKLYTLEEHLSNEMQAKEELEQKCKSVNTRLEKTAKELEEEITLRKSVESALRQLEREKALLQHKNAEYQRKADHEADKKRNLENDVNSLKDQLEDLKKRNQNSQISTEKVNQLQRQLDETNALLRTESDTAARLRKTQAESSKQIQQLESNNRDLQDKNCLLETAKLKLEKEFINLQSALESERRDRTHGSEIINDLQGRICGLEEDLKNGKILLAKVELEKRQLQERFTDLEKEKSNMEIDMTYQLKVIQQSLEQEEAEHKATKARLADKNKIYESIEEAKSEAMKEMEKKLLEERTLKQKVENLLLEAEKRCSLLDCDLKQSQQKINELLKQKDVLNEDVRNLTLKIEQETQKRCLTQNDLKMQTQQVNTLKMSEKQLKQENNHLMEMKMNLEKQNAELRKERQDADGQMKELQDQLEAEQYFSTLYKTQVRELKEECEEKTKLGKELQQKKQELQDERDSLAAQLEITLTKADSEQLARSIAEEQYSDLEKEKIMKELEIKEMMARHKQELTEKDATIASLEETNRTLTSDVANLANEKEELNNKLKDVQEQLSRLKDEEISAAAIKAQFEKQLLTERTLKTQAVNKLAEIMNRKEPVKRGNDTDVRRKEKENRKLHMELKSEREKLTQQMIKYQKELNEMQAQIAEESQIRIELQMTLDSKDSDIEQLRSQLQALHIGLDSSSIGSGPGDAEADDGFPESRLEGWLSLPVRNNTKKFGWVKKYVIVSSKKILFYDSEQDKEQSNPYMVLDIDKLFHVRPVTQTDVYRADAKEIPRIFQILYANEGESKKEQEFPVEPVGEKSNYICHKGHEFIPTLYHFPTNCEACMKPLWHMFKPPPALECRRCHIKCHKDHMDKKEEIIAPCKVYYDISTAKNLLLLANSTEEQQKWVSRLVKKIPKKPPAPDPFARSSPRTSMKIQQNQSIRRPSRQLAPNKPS

In turn, `NC(=O)c1cccnc1O[C@H]1CC2(C[C@H](NC(=O)c3cnn4cc(OCCCC(F)(F)F)ccc34)C2)C1` (stereo partly drawn) [Example 122, N-((aR)-6-((3-carbamoylpyridin-2-yl)oxy)spiro[3.3]heptan-2-yl)-6-(4,4,4-trifluorobutoxy) pyrazolo[1,5-a]pyridine-3-carboxamide, trifluoroacetate] had an IC50 of 5 to 50 nM.
In turn, `NC(=O)c1cccnc1O[C@H]1CC2(C[C@H](NC(=O)c3cnn4cc(OCCCN5CCCC5=O)ccc34)C2)C1` (stereo partly drawn) [Example 124, N-((aR)-6-((3-carbamoylpyridin-2-yl)oxy)spiro[3.3]heptan-2-yl)-6-(3-(2-oxopyrrolidin-1-yl)propoxy) pyrazolo[1,5-a]pyridine-3-carboxamide, trifluoroacetate] showed a 50% inhibitory concentration (IC50) of 5 to 50 nM.
Molecule `NC(=O)c1cccnc1O[C@H]1CC2(C[C@H](NC(=O)c3cnn4cc(OCCOC(F)(F)F)ccc34)C2)C1` (stereo partly drawn) [Example 125, N-((aR)-6-((3-carbamoylpyridin-2-yl)oxy)spiro[3.3]heptan-2-yl)-6-(2-(trifluoromethoxy)ethoxy) pyrazolo[1,5-a] pyridine-3-carboxamide, t rifluoroacetate] displayed an IC50 of 5 to 50 nM.
`NC(=O)c1cccnc1O[C@H]1CC2(C[C@H](NC(=O)c3cnn4cc(OCC[C@H]5COC(=O)N5)ccc34)C2)C1` (stereo partly drawn) [Example 126, N-((aR)-6-((3-carbamoylpyridin-2-yl)oxy)spiro[3.3]heptan-2-yl)-6-(2-((S)-2-oxoxazolidin-4-yl)ethoxy) pyrazolo[1,5-a]pyridine-3-carboxamdie, trifluoroacetate]: the concentration for half-maximal inhibition (IC50) was less than 5 nM.
Consider `CC(C)(O)COc1ccc2c(C(=O)N[C@H]3CC4(C3)C[C@H](Oc3ncccc3C(N)=O)C4)nn(CC(C)(C)O)c2c1` (stereo partly drawn) [Example 127, N-((aR)-6-((3-carbamoylpyridin-2-yl)oxy)spiro[3.3]heptan-2-yl)-6-(2-hydroxy-2-methylpropoxy)-1-(2-hydroxy-2-methylpropyl)-1H-indazole-3-carboxamide, trifluoroacetate], for which the IC50 lay in the range of 5 to 50 nM.
In turn, `Cc1ncsc1CCOc1ccc2c(C(=O)N[C@H]3CC4(C3)C[C@H](Oc3ncccc3C(N)=O)C4)cnn2c1` (stereo partly drawn) [Example 128, N-((aR)-6-((3-carbamoylpyridin-2-yl)oxy)spiro[3.3]heptan-2-yl)-6-(2-(4-methylthiazol-5-yl)ethoxy) pyrazolo[1,5-a]pyridine-3-carboxamide, trifluoroacetate] yielded an IC50 of 5 to 50 nM.
In turn, `NC(=O)c1cccnc1O[C@H]1CC2(C[C@H](NC(=O)c3csc(-c4ccccn4)n3)C2)C1` (stereo partly drawn) [Example 130, N-((aR)-6-((3-carbamoylpyridin-2-yl)oxy)spiro [3.3]heptan-2-yl)-2-(pyridin-2-yl)thiazole-4-carboxamide, bis-trifluoroacetate] had an IC50 of 250 to 2500 nM.
As for `CN(c1ccccc1)S(=O)(=O)c1cccc(C(=O)N[C@H]2CC3(C2)C[C@H](Oc2ncccc2C(N)=O)C3)c1` (stereo partly drawn) [Example 131, 2-(((aR)-6-(3-(N-methyl-N-phenylsulfamoyl)benzamido)spiro[3.3]heptan-2-yl)oxy) nicotinamide, trifluoroacetate], the IC50 was 5 to 50 nM.
The molecule `NC(=O)c1cccnc1O[C@H]1CC2(C[C@H](NC(=O)c3nn(Cc4ccccc4)c4ccccc34)C2)C1` (stereo partly drawn) [Example 132, 1-benzyl-N-((aR)-6-((3-carbamoylpyridin-2-yl)oxy)spiro[3.3]heptan-2-yl)-1H-indazole-3-carboxamide, trifluoroacetate] came in with an IC50 of 5 to 50 nM.
Molecule `NC(=O)c1cccnc1O[C@H]1CC2(C[C@H](NC(=O)c3cccc(-n4cccn4)c3)C2)C1` (stereo partly drawn) [Example 134, 2-(((aR)-6-(3-(1H-pyrazol-1-yl)benzamido)spiro[3.3]heptan-2-yl)oxy) nicotinamide, trifluoroacetate] gave an IC50 of 50 to 250 nM.
The molecule `Cc1nc(-c2cccnc2)sc1C(=O)N[C@H]1CC2(C1)C[C@H](Oc1ncccc1C(N)=O)C2` (stereo partly drawn) [Example 135, N-((aR)-6-((3-carbamoylpyridin-2-yl)oxy)spiro [3.3]heptan-2-yl)-4-methyl-2-(pyridin-3-yl)thiazole-5-carboxamide, bis-trifluoroacetate] showed an IC50 of 250 to 2500 nM.
Take `COc1ccc(-c2nc(C(=O)N[C@H]3CC4(C3)C[C@H](Oc3ncccc3C(N)=O)C4)cs2)cc1` (stereo partly drawn) [Example 136, N-((aR)-6-((3-carbamoylpyridin-2-yl)oxy)spiro[3.3]heptan-2-yl)-2-(4-methoxyphenyl) thiazole-4-carboxamide, trifluoroacetate]: the IC50 fell in the range of 250 to 2500 nM.
In turn, `CC(C)NS(=O)(=O)c1ccccc1C(=O)N[C@H]1CC2(C1)C[C@H](Oc1ncccc1C(N)=O)C2` (stereo partly drawn) [Example 138, 2-(((aR)-6-(2-(N-isopropylsulfamoyl)benzamido)spiro[3.3]heptan-2-yl)oxy)nicotinamide, trifluoroacetate] registered an IC50 of 250 to 2500 nM.
`NC(=O)c1cccnc1O[C@H]1CC2(C[C@H](NC(=O)c3c(C(F)(F)F)nc4ccc(Cl)cn34)C2)C1` (stereo partly drawn) [Example 139, N-((aR)-6-((3-carbamoylpyridin-2-yl)oxy)spiro[3.3]heptan-2-yl)-6-chloro-2-(trifluoromethyl) imidazo[1,2-a]pyridine-3-carboxamide, trifluoroacetate] yielded an IC50 of 250 to 2500 nM.
`NC(=O)c1cccnc1O[C@H]1CC2(C[C@H](NC(=O)c3ccccc3-c3nc4ccccc4[nH]3)C2)C1` (stereo partly drawn) [Example 140, 2-(((aR)-6-(2-(1H-benzo[d]imidazol-2-yl)benamido)spiro [3.3]heptan-2-yl)oxy) nicotinamide, trifluoroacetate] displayed an IC50 of 250 to 2500 nM.
Consider `NC(=O)c1cccnc1O[C@H]1CC2(C[C@H](NC(=O)c3cccc(Cn4ccnc4)c3)C2)C1` (stereo partly drawn) [Example 141, 2-(((aR)-6-(3-((1H-imidazol-1-yl)methyl)benzamido)spiro[3.3]heptan-2-yl)oxy) nicotinamide, trifluoroacetate], for which the half-inhibitory concentration (IC50) lay in the range of 250 to 2500 nM.
For `Cc1nnnn1-c1cccc(C(=O)N[C@H]2CC3(C2)C[C@H](Oc2ncccc2C(N)=O)C3)c1` (stereo partly drawn) [Example 142, 2-(((aR)-6-(3-(5-methyl-1H-tetrazol-1-yl)benzamido)spiro[3.3]heptan-2-yl)oxy) nicotinamide, trifluoroacetate], the IC50 was 50 to 250 nM.
The figure for `COc1ccc(CCc2ccccc2C(=O)N[C@H]2CC3(C2)C[C@H](Oc2ncccc2C(N)=O)C3)cc1` (stereo partly drawn) [Example 143, 2-(((aR)-6-(2-(4-methoxyphenethyl)benzamido)spiro[3.3]heptan-2-yl)oxy)nicotinamide, trifluoroacetate] is 250 to 2500 nM.
For the molecule `NC(=O)c1cccnc1O[C@H]1CC2(C[C@H](NC(=O)c3nc(-c4nc5ccccc5s4)cs3)C2)C1` (stereo partly drawn) [Example 144, 4-(benzo[d]thiazol-2-yl)-N-((aR)-6-((3-carbamoylpyridin-2-yl)oxy)spiro [3.3]heptan-2-yl)thiazole-2-carboxamide, trifluoroacetate], the IC50 is 250 to 2500 nM.
In turn, `NC(=O)c1cccnc1O[C@H]1CC2(C[C@H](NC(=O)c3nc(-c4ccccn4)cs3)C2)C1` (stereo partly drawn) [Example 145, N-((aR)-6-((3-carbamoylpyridin-2-yl)oxy)spiro[3.3]heptan-2-yl)-4-(pyridin-2-yl) thiazole-2-carboxamide, trifluoroacetate] returned a half-inhibitory concentration (IC50) of 250 to 2500 nM.
The molecule `Cn1c(-c2nc(C(=O)N[C@H]3CC4(C3)C[C@H](Oc3ncccc3C(N)=O)C4)cs2)nc2ccccc21` (stereo partly drawn) [Example 146, N-((aR)-6-((3-carbamoylpyridin-2-yl)oxy)spiro[3.3]heptan-2-yl)-2-(1-methyl-1H-benzo[d]imidazol-2-yl)thiazole-4-carboxamide, trifluoroacetate] displayed a half-inhibitory concentration (IC50) of 50 to 250 nM.
Then `Cc1noc(-c2cccc(C(=O)N[C@H]3CC4(C3)C[C@H](Oc3ncccc3C(N)=O)C4)c2)n1` (stereo partly drawn) [Example 147, 2-(((aR)-6-(3-(3-methyl-1,2,4-oxadiazol-5-yl)benzamido)spiro[3.3]heptan-2-yl)oxy) nicotinamide, trifluoroacetate], with 250 to 2500 nM; and `NC(=O)c1cccnc1O[C@H]1CC2(C[C@H](NC(=O)c3cc(S(N)(=O)=O)c(F)cc3Cl)C2)C1` (stereo partly drawn) [Example 148, 2-(((aR)-6-(2-chloro-4-fluoro-5-sulfamoylbenzamido)spiro[3.3]heptan-2-yl)oxy) nicotinamide, trifluoroacetate], with 50 to 250 nM.
`NC(=O)c1cccnc1O[C@H]1CC2(C[C@H](NC(=O)c3ccc4c(c3)S(=O)(=O)NC4=O)C2)C1` (stereo partly drawn) [Example 149, N-((aR)-6-((3-carbamoylpyridin-2-yl)oxy)spiro[3.3]heptan-2-yl)-3-oxo-2,3-dihydrobenzo[d] isothiazole-6-carboxamide 1,1-dioxide, trifluoroacetate] returned an IC50 of 50 to 250 nM.
In the case of `NC(=O)c1cccnc1O[C@H]1CC2(C[C@H](NC(=O)c3ccc(F)c(S(N)(=O)=O)c3)C2)C1` (stereo partly drawn) [Example 150, 2-(((aR)-6-(4-fluoro-3-sulfamoylbenzamido)spiro[3.3]heptan-2-yl)oxy) nicotinamide, trifluoroacetate], the IC50 was 5 to 50 nM.
In the case of `NC(=O)c1cccnc1O[C@H]1CC2(C[C@H](NC(=O)c3ccc4[nH]c(=O)c(=O)[nH]c4c3)C2)C1` (stereo partly drawn) [Example 151, N-((aR)-6-((3-carbamoylpyridin-2-yl)oxy)spiro[3.3]heptan-2-yl)-2,3-dioxo-1,2,3,4-tetrahydroquinoxaline-6-carboxamide, trifluoroacetate], the half-inhibitory concentration (IC50) is 250 to 2500 nM.
Take `NC(=O)c1cccnc1O[C@H]1CC2(C[C@H](NC(=O)c3ccc(Cl)c(S(N)(=O)=O)c3)C2)C1` (stereo partly drawn) [Example 152, 2-(((aR)-6-(4-chloro-3-sulfamoylbenzamido)spiro[3.3]heptan-2-yl)oxy) nicotinamide, trifluoroacetate]: the IC50 lay within 5 to 50 nM.
For `NC(=O)c1cccnc1O[C@H]1CC2(C[C@H](NC(=O)c3cn4cc(Cl)ccc4n3)C2)C1` (stereo partly drawn) [Example 153, N-((aR)-6-((3-carbamoylpyridin-2-yl)oxy)spiro[3.3]heptan-2-yl)-6-chloroimidazo[1,2-a]pyridine-2-carboxamide, trifluoroacetate], the IC50 is 250 to 2500 nM.
Consider `Cn1c(C(=O)N[C@H]2CC3(C2)C[C@H](Oc2ncccc2C(N)=O)C3)cc2ccc(Cl)cc21` (stereo partly drawn) [Example 154, N-((aR)-6-((3-carbamoylpyridin-2-yl)oxy)spiro[3.3]heptan-2-yl)-6-chloro-1-methyl-1H-indole-2-carboxamide], for which the IC50 was in the range of 50 to 250 nM.

Broadly, the IC50 is the concentration that inhibits the measured activity by half.

The record behind these values is patent US10829501B2 (BRISTOL-MYERS SQUIBB COMPANY, priority 2016, dated 2020).
